Experiments:
[1] = xn = mol fraction of the nth substance listed; conditions: 298.15 K, 101.3 kPa, Liquid, Vibrating tube method
[2] = refractive index (Na D-line) (dimensionless); conditions: 298.15 K; 101.3 kPa; Liquid; Standard Abbe refractometry
[3] = Liquid; for mass density: 298.15 K, 101.3 kPa, Vibrating tube method; for vapor or sublimation pressure: Ebulliometric method (Recirculating still)

CC(C)CC(C)(C)C [2,2,4-trimethylpentane] + CCOC(C)=O
[1]
Conditions | mass density [kg/m3]
x2 = 0 | 687.8
x2 = 0.0627 | 694.4
x2 = 0.1027 | 699
x2 = 0.1524 | 704.9
x2 = 0.2008 | 711.1
x2 = 0.272 | 721
x2 = 0.3528 | 733.3
x2 = 0.386 | 738.7
x2 = 0.4349 | 747.1
x2 = 0.4568 | 751
x2 = 0.5071 | 760.4
x2 = 0.5362 | 766.1
x2 = 0.6042 | 780.2
x2 = 0.7014 | 802.6
x2 = 0.7603 | 817.7
x2 = 0.8488 | 842.7
x2 = 0.8968 | 857.9
x2 = 0.9273 | 868.1
x2 = 0.9465 | 874.7

CCCCCCC [heptane]
Conditions | mass density [kg/m3] | refractive index
[2] | – | 1.38527
[3] | 679.7 | –

Conditions | vapor or sublimation pressure [kPa]
[3], 498.65 K | 1500

CCOC(C)=O [ethyl acetate] + CCCCCCC
[1]
Conditions | mass density [kg/m3]
x1 = 0.0642 | 687.5
x1 = 0.071 | 688.3
x1 = 0.125 | 695.2
x1 = 0.1274 | 695.8
x1 = 0.1932 | 705.1
x1 = 0.2136 | 708.2
x1 = 0.3294 | 726.7
x1 = 0.3874 | 736.7
x1 = 0.4593 | 750.2
x1 = 0.5966 | 778.8
x1 = 0.6582 | 793.2
x1 = 0.6841 | 799.3
x1 = 0.7001 | 803.7
x1 = 0.7346 | 812.6
x1 = 0.8029 | 830.8
x1 = 0.8272 | 837.6
x1 = 0.8471 | 843.6
x1 = 0.9069 | 862.1
x1 = 0.9631 | 880.7
x1 = 1 | 894.4

CC(C)CC(C)(C)C [2,2,4-trimethylpentane] + COC(C)=O
Conditions | mass density [kg/m3]
[1], x2 = 0 | 687.8

COC(C)=O [methyl ethanoate] + CCCCCCC
[1]
Conditions | mass density [kg/m3]
x1 = 0.0579 | 685.5
x1 = 0.0789 | 687.8
x1 = 0.0926 | 689.7
x1 = 0.1276 | 694.1
x1 = 0.1562 | 697.4
x1 = 0.1662 | 698.8
x1 = 0.1998 | 703.2
x1 = 0.2413 | 709.3
x1 = 0.2652 | 712.7
x1 = 0.2914 | 716.8
x1 = 0.3583 | 728.4
x1 = 0.4171 | 739
x1 = 0.43 | 741.6
x1 = 0.4682 | 749.3
x1 = 0.506 | 757.3
x1 = 0.5357 | 764
x1 = 0.584 | 775.6
x1 = 0.6338 | 788.4
x1 = 0.715 | 811.7
x1 = 0.7194 | 813
x1 = 0.7256 | 814.9
x1 = 0.7698 | 829
x1 = 0.7996 | 839.2
x1 = 0.8104 | 843.3
x1 = 0.8285 | 850.2
x1 = 0.8537 | 859.8
x1 = 0.8558 | 860.5
x1 = 0.8898 | 874.1
x1 = 0.901 | 879.1
x1 = 0.9172 | 885.8
x1 = 0.9284 | 890.8
x1 = 0.9598 | 905.6
x1 = 0.9631 | 907.4
x1 = 0.9735 | 912.8
x1 = 1 | 927.1

COC(C)=O [methyl ethanoate]
Conditions | mass density [kg/m3] | refractive index
[2] | – | 1.35875
[3] | 927.1 | –

[3]
Conditions | vapor or sublimation pressure [kPa]
329.99 K | 100
436.08 K | 1500

CCCCCCC [heptane] + COC(C)=O
Conditions | mass density [kg/m3]
[1], x2 = 0 | 679.7

CCOC(C)=O [ethyl acetate]
Conditions | mass density [kg/m3] | refractive index
[2] | – | 1.36981
[3] | 894.4 | –

[3]
Conditions | vapor or sublimation pressure [kPa]
350.19 K | 100
462.75 K | 1500

CCCCCCC [heptane] + CCOC(C)=O
Conditions | mass density [kg/m3]
[1], x2 = 0 | 679.7

CC(C)CC(C)(C)C [2,2,4-trimethylpentane]
Conditions | mass density [kg/m3] | refractive index
[2] | – | 1.38905
[3] | 687.8 | –

[3]
Conditions | vapor or sublimation pressure [kPa]
371.91 K | 100
504.65 K | 1500

CCOC(C)=O [ethyl acetate] + CC(C)CC(C)(C)C
Conditions | mass density [kg/m3]
[1], x1 = 1 | 894.4

COC(C)=O [methyl ethanoate] + CC(C)CC(C)(C)C
[1]
Conditions | mass density [kg/m3]
x1 = 0.0646 | 693.5
x1 = 0.0822 | 695.3
x1 = 0.0859 | 695.7
x1 = 0.0992 | 697
x1 = 0.1566 | 703.6
x1 = 0.1941 | 707.9
x1 = 0.208 | 709.7
x1 = 0.224 | 711.7
x1 = 0.2636 | 717.1
x1 = 0.2688 | 717.7
x1 = 0.2957 | 721.6
x1 = 0.3211 | 725.4
x1 = 0.3319 | 727
x1 = 0.3956 | 737.4
x1 = 0.5015 | 757.3
x1 = 0.578 | 774
x1 = 0.5792 | 774.3
x1 = 0.6528 | 792.8
x1 = 0.6958 | 804.5
x1 = 0.7268 | 813.9
x1 = 0.7611 | 824.8
x1 = 0.7834 | 832.2
x1 = 0.8161 | 843.6
x1 = 0.8466 | 855.3
x1 = 0.848 | 855.8
x1 = 0.8628 | 861.6
x1 = 0.8632 | 861.9
x1 = 0.8889 | 872.5
x1 = 0.9179 | 885.5
x1 = 0.9388 | 895.1
x1 = 0.9406 | 895.7
x1 = 0.9456 | 898.3
x1 = 0.9574 | 904.3
x1 = 1 | 927.1
